The METLIN SMRT retention time set (Domingo-Almenara et al. 2019)

Test: gradient 5% acetonitrile 3 min, to 50% in 2 min, to 85% in 15 min, held 3 min, 100 µL/min
Conditions: column: Zorbax Extend-C18 2.1 x 50 mm; eluents: water / acetonitrile, 0.1% formic acid
Procedure, shortened: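 The mobile phases were water and acetonitrile, each with 0.1% formic acid, pumped at 100 μL/min through a Zorbax Extend-C18 column (2.1 × 50 mm, 1.8 μm). Pure standards were injected as mixtures of ~100 molecules and detected by a quadrupole time-of-flight mass spectrometer in positive and negative ionization mode. Retention time came from computationally picked adduct peaks, each inspected by hand.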

RP-LC retention time [s] | SMILES
849 | CCc1cc(=O)n(CC(=O)Nc2ccc(C(F)(F)F)cc2)c(N2CCOCC2)n1
745 | CCN(CC)C(=O)c1ccc(-c2nnc3ccc(NC(=O)C4CCC4)cn23)cc1
948 | COc1ccc(-c2noc(C3CCCN3C(=O)NC3CCCCC3)n2)cc1 (configuration not stated)
890 | O=C(CCc1nc2ccccc2n(CC(=O)Nc2cc(F)cc(F)c2)c1=O)NCc1ccccc1
802 | O=C(Cn1ccc2sccc2c1=O)Nc1ccc(Cl)cc1F
895 | CCc1nc2cc(-c3noc(-c4ccc(C)c(NC(C)=O)c4)n3)ccc2o1
921 | CCc1ccc(NC(=O)Cn2c(=O)nc(N3CCC(C)CC3)c3ccccc32)cc1
1050 | CCOc1ccccc1-c1noc(CN2C(=O)COc3cc(C)ccc32)n1
665 | O=C(NC1CCCCC1)C1CCN(Cc2noc(-c3ccc(F)cc3)n2)CC1
552 | CC(C)Cn1c(=O)c(C(=O)NCCN2CCCCC2)nc2cccnc21
753 | CCc1cccc(NC(=O)Cn2cc(C(=O)N3CCCC3)c(=O)c3ccc(C)nc32)c1
1010 | O=C(CSc1nc2ccccc2s1)OCc1cc(-c2ccco2)on1
727 | CC(C)c1nnc(NC(=O)C2CCN(C(=O)c3ccc(F)cc3)CC2)s1
584 | COc1ccc(-c2nc(C)cc(C)c2CNC(=O)C2CCC2)cc1
624 | CCOc1cc2c(cc1OCC)C1C(C(=O)NCCCN3CCCC3)c3ccccc3C(=O)N1CC2 (configuration not stated)
970 | CCCCC(C=O)NC(=O)[C@H](CC(C)C)NC(=O)OCc1ccccc1 (some centres not stated)
730 | O=C(NCc1cccc(Br)c1)c1cn2ccccc2n1
769 | O=C(NCc1ccc(F)cc1)C1CCN(c2cnc3nccnc3c2)CC1
990 | Cc1cc(C)cc(NC(=O)CSc2cc(N3CCCCC3)ncn2)c1
906 | Cc1cccc(CN2CC(=O)N(c3ccc(C)c(C)c3)[C@@H]3CS(=O)(=O)C[C@@H]32)c1
960 | Cn1cc2c(n1)c(=O)n(Cc1ccc(Cl)cc1)c1nn(Cc3ccccc3)c(=O)n21
1020 | CCCOC(=O)C1=CN(Cc2ccccc2)S(=O)(=O)N=C1C

RP-LC retention time [s] | SMILES
622 | O=C(Cn1cnc2cc3c(cc21)OCCO3)Nc1ccc2c(c1)OCCCO2
670 | O=C(C1CCN(c2cncnc2N2CCCC2)CC1)N1CCN(c2ccc(F)cc2)CC1
1010 | Cc1cc(N2CCN(C(=O)c3cccc(N(C)C)c3)CC2)nc2nncn12
906 | CC(C)NC(=O)N1CCCC1c1nc(-c2cccc(Cl)c2)no1 (configuration not stated)
666 | O=C(Cn1cnc(-c2cccs2)cc1=O)NCCn1nc(-c2cccs2)ccc1=O
652 | CCCOc1ccc2nc(NC(=O)OC)[nH]c2c1
778 | COc1ccc(NC(=O)CN2C(=O)C(C)(C)c3ccccc32)cc1OC
804 | CCS(=O)(=O)Nc1ccc(OCc2nnc(-c3ccccc3)o2)cc1
852 | CC(C)(C)C1=NN=C2c3ccccc3C(=O)C21 (configuration not stated)
830 | COc1ccccc1-c1noc(C2CCCN2C(=O)c2ccc3cc[nH]c3c2)n1 (configuration not stated)
837 | COc1ccc(-c2c(C)noc2NC(C)=O)cc1S(=O)(=O)Nc1ccc(C)cc1Cl
1220 | COc1ccccc1-c1noc(-c2nnn3c2COC(c2ccc(Cl)cc2)C3)n1 (configuration not stated)
668 | CCCN1C(=O)Cc2ccccc2C1C(=O)O (configuration not stated)
1190 | O=C(Nc1cccc(F)c1)C1CCCN(S(=O)(=O)c2cc(-c3noc(C4CCC4)n3)cs2)C1 (configuration not stated)
936 | CCOC(=O)c1noc2ncnc(NCCc3ccccc3)c12
565 | O=C(c1cc(-c2cccnc2)n[nH]1)N1CCN(C(=O)C2CC2)CC1
867 | CC1(C)CC2CC(C)(CN2c2ncnc(N)c2[N+](=O)[O-])C1 (configuration not stated)
833 | COc1ccccc1NC(=O)Cn1c(=O)n(-c2ccc(F)cc2)c(=O)c2c1cc(C)n2C
843 | CC1CC(=O)N(CC(=O)Nc2ccc(Cl)cc2)c2ccccc2S1(=O)=O (configuration not stated)
847 | CCCCn1nc2ccc(S(=O)(=O)N3CCSCC3)cn2c1=O
660 | CNC(=O)c1ccc(-c2nc3cc(NS(=O)(=O)c4ccc(Cl)s4)ccc3n2C)cc1
738 | O=C(Nc1cccc(-c2ccc(N3CCOCC3)nn2)c1)Nc1cc(F)ccc1F

RP-LC retention time [s] | SMILES
724 | O=C(c1nc(-c2cccc(F)c2)n2c1CCCCC2)N1CCN(c2ncccn2)CC1
703 | Cc1nc(Nc2ccccn2)sc1C(=O)N1CCSCC1
1020 | COc1cccc(-c2noc(C3CCCN3C(=O)Nc3ccccc3OC)n2)c1 (configuration not stated)
603 | Cc1ccc(S(=O)(=O)Nc2n[nH]nc2C(N)=O)cc1
688 | COc1ccc(OC)c(CNC(=O)c2c(C)sc3ccn(C)c(=O)c23)c1
854 | CN1C(=O)c2cc(C(=O)NCCCc3ccccc3)nn2CC1(C)C(=O)NC1CCCCC1 (configuration not stated)
852 | COCCN1C(=O)c2ccccc2C(C(=O)Nc2ccc(OC)cc2)C12CCCC2 (configuration not stated)
609 | CS(=O)(=O)c1ccccc1-c1nnc(NC(=O)c2cccc(N3C(=O)CCC3=O)c2)o1
1260 | Cc1ccc(S(=O)(=O)c2cnc(N3CCN(c4cccc(Cl)c4)CC3)nc2N)cc1C
953 | O=C(O)c1ccc2c(c1)C(=O)N(Nc1ccccc1[N+](=O)[O-])C2=O
740 | Cc1ccc(CN2CCN(C3CCN(C(=O)Nc4cccc(C)c4)CC3)C(=O)C2=O)cc1
687 | CCOC(=O)C1=C(CN2CCC(c3ccccc3)C2)NC(=O)NC1c1ccc(F)cc1 (configuration not stated)
819 | COC(=O)C1=CN(c2cc(OC)ccc2OC)c2cc(F)ccc2S1(=O)=O
602 | O=C(CCn1nnc2cc(S(=O)(=O)N3CCCC3)ccc21)N1CCN(c2ccccn2)CC1
568 | NC(=O)C1CCN(C2CC(=O)N(c3ccc4c(c3)OCCO4)C2=O)CC1 (configuration not stated)
804 | CC(C)n1cnc(S(=O)(=O)N2CCC(C(=O)NCCC3=CCCCC3)CC2)c1
710 | O=C(NCC(O)(c1ccccc1)C(F)(F)F)c1cnccn1 (configuration not stated)
719 | CN(C)C(=O)c1ccc2c(c1)nnn2CCNC(=O)Nc1cc(Cl)ccc1Cl
820 | COc1cccc(N2CC(C(=O)Nc3nnc(SCc4ccccc4)s3)CC2=O)c1 (configuration not stated)
981 | O=c1c2cc(-c3ccc4c(c3)OCO4)nn2ccn1Cc1cccc(F)c1

SMILES | RP-LC retention time [s]
Cc1ccccc1-n1c(Cn2ncc3c(N)ncnc32)nc2cccc(C)c2c1=O | 719
CCCn1cc(C(=O)NCc2ccccn2)c2cccnc21 | 595
CCC(N)Cc1c[nH]c2ccccc12 (configuration not stated) | 646
